ChEMBL document CHEMBL1151232, “First synthesis and determination of the absolute configuration of sulphostin, a novel inhibitor of dipeptidyl peptidase IV” (J Nat Prod, 2004)

Experiments:
[1] = target: Dipeptidyl peptidase 4 (Rattus norvegicus) (UniProt P14740); details: 2 ng/ml
Description: Inhibition of rat kidney DPP4 at 2 ng/ml

[2] = target: Dipeptidyl peptidase 4 (Rattus norvegicus) (UniProt P14740); details: 32 ng/ml
Description: Inhibition of rat kidney DPP4 at 32 ng/ml

[3] = target: Dipeptidyl peptidase 4 (Rattus norvegicus) (UniProt P14740); details: 8 ng/ml
Description: Inhibition of rat kidney DPP4 at 8 ng/ml

[4] = target: Dipeptidyl peptidase 4 (Rattus norvegicus) (UniProt P14740); details: 16 ng/ml
Description: Inhibition of rat kidney DPP4 at 16 ng/ml

[5] = target: Dipeptidyl peptidase 4 (Rattus norvegicus) (UniProt P14740); details: 4 ng/ml
Description: Inhibition of rat kidney DPP4 at 4 ng/ml

[6] = target: Dipeptidyl peptidase 4 (Rattus norvegicus) (UniProt P14740); details: 1 ng/ml
Description: Inhibition of rat kidney DPP4 at 1 ng/ml

[7] = target: Dipeptidyl peptidase 4 (Rattus norvegicus) (UniProt P14740); details: 64 ng/ml
Description: Inhibition of rat kidney DPP4 at 64 ng/ml

[8] = target: Dipeptidyl peptidase 4 (Rattus norvegicus) (UniProt P14740); details: 0.5 ng/ml
Description: Inhibition of rat kidney DPP4 at 0.5 ng/ml

Sequence of Dipeptidyl peptidase 4 (Rattus norvegicus) (P14740 whole entry, looked up): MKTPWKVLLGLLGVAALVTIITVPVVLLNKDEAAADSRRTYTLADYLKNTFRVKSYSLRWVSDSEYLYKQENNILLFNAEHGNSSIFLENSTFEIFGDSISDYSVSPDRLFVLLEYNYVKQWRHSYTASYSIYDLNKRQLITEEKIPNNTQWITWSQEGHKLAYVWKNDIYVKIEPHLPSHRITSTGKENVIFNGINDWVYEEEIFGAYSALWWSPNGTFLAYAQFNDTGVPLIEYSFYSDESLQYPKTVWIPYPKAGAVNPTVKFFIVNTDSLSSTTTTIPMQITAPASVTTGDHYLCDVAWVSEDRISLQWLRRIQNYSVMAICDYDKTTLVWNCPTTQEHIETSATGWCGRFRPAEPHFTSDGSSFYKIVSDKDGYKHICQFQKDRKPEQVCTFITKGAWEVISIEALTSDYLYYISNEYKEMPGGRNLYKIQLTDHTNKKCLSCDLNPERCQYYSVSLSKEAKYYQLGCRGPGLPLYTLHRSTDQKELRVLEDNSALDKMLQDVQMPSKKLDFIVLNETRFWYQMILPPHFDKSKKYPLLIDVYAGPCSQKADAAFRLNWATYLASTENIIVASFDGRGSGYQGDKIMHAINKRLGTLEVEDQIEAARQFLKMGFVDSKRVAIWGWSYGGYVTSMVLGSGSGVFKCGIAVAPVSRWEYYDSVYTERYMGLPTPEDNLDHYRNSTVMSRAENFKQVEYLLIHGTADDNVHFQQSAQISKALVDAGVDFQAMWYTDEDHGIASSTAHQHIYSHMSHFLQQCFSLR

With `N[C@H]1CCCN([P@@](N)(=O)NS(=O)(=O)O)C1=O` as the compound, how does the inhibition [1] read?
Its inhibition is 30.6%.

What about the inhibition [2] of the same compound?
Its inhibition is 77.4%.

And the inhibition [3]?
The inhibition was 54.4%.

What about the inhibition [4] of the same compound?
The inhibition was 66.9%.

And the inhibition [5]?
Its inhibition is 41.9%.

What about the inhibition [6] of the same compound?
The inhibition was 20.2%.

What about the inhibition [7] of the same compound?
Its inhibition is 84.5%.

And the inhibition [8]?
The inhibition was 15.9%.
